Source: patent publication US7439380B2, “Diarylbutadiene-substituted diorganopolysiloxanes and photoprotective compositions comprised thereof” (L'Oreal, priority 2003, dated 2008)

Test: UV absorption spectrum in ethanol
Format: physicochemical
Conditions: for UV E1% / UV εmax: at λmax

## CCOC(=O)/C(=C/C=C(c1ccccc1)c1ccccc1)C(=O)OCC(C)C[Si](C)(O[Si](C)(C)C)O[Si](C)(C)C (stereo not drawn) [Example 1, monoethyl mono-3-[1,3,3,3-tetramethyl-1-[(trimethylsilyl)oxy]disiloxanyl]-2-methylpropyl 2-(3,3-diphenylprop-2-enylene)malonate]
  UV λmax: 333 nm
  UV E1%: 660
  UV εmax: 39 530

## C[Si](C)(C)O[Si](C)(CCCOC(=O)/C(C#N)=C\C=C(c1ccccc1)c1ccccc1)O[Si](C)(C)C [Example 3, 3-[1,3,3,3-tetramethyl-1-[(trimethylsilyl)oxy]disiloxanyl]propyl 2-cyano-5,5-diphenylpenta-2,4-dienoate]
  UV λmax: 358 nm
  UV E1%: 574
  UV εmax: 30 874

## C[Si](C)(C)O[Si](C)(CCCNC(=O)/C(C#N)=C/C=C(c1ccccc1)c1ccccc1)O[Si](C)(C)C [Example 5, N-[3-[1,3,3,3-tetramethyl-1-[(trimethylsilyl)oxy]disiloxanyl]propyl]-2-cyano-5,6-diphenylpenta-2,4-dienamide]
  UV λmax: 351 nm
  UV E1%: 515
  UV εmax: 27 650

## CC(COC(=O)C(=CC=C(c1ccccc1)c1ccccc1)C(=O)OCC(C)C[Si](C)(O[Si](C)(C)C)O[Si](C)(C)C)C[Si](C)(O[Si](C)(C)C)O[Si](C)(C)C (stereo not drawn) [Example 6]
  UV λmax: 330 nm
  UV E1%: 346
  UV εmax: 28 650

## CCOC(=O)/C(=C\C=C(c1ccccc1)c1ccccc1)C(=O)NCCC[Si](C)(O[Si](C)(C)C)O[Si](C)(C)C [Example 7, ethyl 4,4-diphenyl-1,3-diene-N-[3-[1,3,3,3-tetramethyl-1-[(trimethylsilyl)oxy]disiloxanyl]propyl]-2-(4,4-diphenylprop-2-ethylene)malonamide]
  UV λmax: 335 nm
  UV E1%: 542
  UV εmax: 31 650
